# Laboratory results as given in patent US11053219B2, “Substituted pyridines as TYK2 inhibitors” (FronThera U.S. Pharmaceuticals LLC, priority 2018, dated 2021).
# Like-named read-outs stand apart in the source and are kept apart here.
# Experiments:
# [1] = system: INFα induced pSTAT5 in human PBMC; experiment: INFα induced pSTAT5 in human PBMC; format: cell-based; settings: read-out: p-STAT5 IC50
# [2] = target: TYK2 (JH2 domain) (Homo sapiens (Human), UniProt P29597); experiment: TYK2 JH2 domain binding assay (DiscoverX KINOMEscan); settings: 11-point 3-fold dilution, duplicate
# Sequence of TYK2 (JH2 domain) (P29597 589-875): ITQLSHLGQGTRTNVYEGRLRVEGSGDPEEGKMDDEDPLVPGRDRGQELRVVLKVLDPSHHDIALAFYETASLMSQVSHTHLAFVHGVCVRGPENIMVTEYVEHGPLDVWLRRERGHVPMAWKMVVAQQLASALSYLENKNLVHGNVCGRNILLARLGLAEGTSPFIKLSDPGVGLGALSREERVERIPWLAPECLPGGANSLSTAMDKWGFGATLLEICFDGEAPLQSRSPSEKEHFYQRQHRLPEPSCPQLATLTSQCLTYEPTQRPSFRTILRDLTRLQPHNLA
smiles,measurement,setting,value
[2H]C([2H])([2H])Oc1c(Nc2cc(NC(=O)C3CC3)ncc2C(=O)C2CC2)cccc1-c1ncn(C([2H])([2H])[2H])n1 [Example 127],IC50,"[1]; Homo sapiens, PBMC",< 100 nM
CCC(=O)c1cnc(Nc2cc(C)n(C)n2)cc1Nc1ncccc1S(C)(=O)=O [Example 179],IC50,"[1]; human PBMC, INFα 5000 units/ml",< 100 nM
[2H]C([2H])([2H])NC(=O)c1nnc(NC(=O)N2CC(C)(C)C2)cc1Nc1cccc(-c2ncn(C([2H])([2H])[2H])n2)c1OC [Example 156],IC50,"[1]; human PBMC, INFα 5000 units/ml",< 100 nM
[2H]C([2H])([2H])NC(=O)c1nnc(N2CCN(C(C)C(F)(F)F)C2=O)cc1Nc1cccc(-c2ncn(C)n2)c1OC (stereo not shown) [Example 83],Kd,[2],≤ 1 nM
CCC(=O)c1cnc(Nc2ccc(C(C)(C)O)c(F)n2)cc1Nc1ncccc1S(C)(=O)=O [Example 174],IC50,"[1]; human PBMC, INFα 5000 units/ml",< 100 nM
CS(=O)(=O)c1cccnc1Nc1cc(Nc2cccnn2)ncc1C(=O)C1CC1 [Example 125],IC50,"[1]; human PBMC, INFα 5000 units/ml",< 100 nM
COc1c(Nc2cc(Nc3ccnc(C)n3)ncc2C(=O)C2CC2)cccc1-c1ncn(C)n1 [Example 153],IC50,"[1]; human PBMC, INFα 5000 units/ml",< 100 nM
COc1c(Nc2cc(Nc3cnc(C)cn3)ncc2C(=O)C2CC2)cccc1-c1ncn(C)n1 [Example 152],IC50,"[1]; human PBMC, INFα 5000 units/ml",< 100 nM
[2H]C([2H])([2H])NC(=O)c1nnc(N2C[C@H](O)CC2=O)cc1Nc1cccc(-c2ncn(C)n2)c1OC [Example 76],Kd,[2],1 to 5 nM
[2H]C([2H])([2H])CC(=O)c1cnc(Nc2ccc(C(C)(C)O)cn2)cc1Nc1ncccc1S(C)(=O)=O [Example 172],IC50,"[1]; human PBMC, INFα 5000 units/ml",< 100 nM
COc1c(Nc2cc(Nc3cc(C#N)ccn3)ncc2C(=O)C2CC2)cccc1-c1ncn(C)n1 [Example 136],IC50,"[1]; human PBMC, INFα 5000 units/ml",< 100 nM
[2H]C([2H])([2H])NC(=O)c1nnc(NC(=O)N2CC(CO)C2)cc1Nc1cccc(-c2ncn(C)n2)c1OC [Example 169],IC50,"[1]; human PBMC, INFα 5000 units/ml",< 100 nM
"[2H]C([2H])([2H])NC(=O)c1nnc(NC(=O)N2CCC2C)cc1Nc1cccc(-c2ncn(C)n2)c1OC (stereo not shown) [Example 164, 4-((2-methoxy-3-(1-methyl-1H-1,2,4-triazol-3-yl)phenyl)amino)-N-(methyl-d3)-6-(2-methylazetidine-1-carboxamido)pyridazine-3-carboxamide]",IC50,"[1]; human PBMC, INFα 5000 units/ml",< 100 nM
COc1c(Nc2cc(N[S@+]([O-])C(C)(C)C)ncc2C(=O)C2CC2)cccc1-c1ncn(C)n1 [Example 118],Kd,[2],> 10 nM
COc1c(Nc2cc(Nc3ccc(N4CCOCC4)cn3)ncc2C(=O)C2CC2)cccc1-c1ncn(C)n1 [Example 110],IC50,"[1]; human PBMC, INFα 5000 units/ml",< 100 nM
COc1c(Nc2cc(Nc3ccn(C)n3)ncc2C(=O)C2CC2)cccc1-c1ncn(C)n1 [Example 138],IC50,"[1]; human PBMC, INFα 5000 units/ml",< 100 nM
[2H]C([2H])([2H])n1cnc(-c2cccc(Nc3cc(NC(=O)C4CC4)ncc3C(=O)CC)c2OC)n1 [Example 189],IC50,"[1]; human PBMC, INFα 5000 units/ml",< 100 nM
COc1c(Nc2cc(NC(=O)NC(C)C)ncc2C(=O)C2CC2)cccc1-c1ncn(C)n1 [Example 121],IC50,"[1]; human PBMC, INFα 5000 units/ml",< 100 nM
COc1c(Nc2cc(Nc3cccnn3)ncc2C(=O)C2CC2)cccc1-c1ncn(C)n1 [Example 109],IC50,"[1]; human PBMC, INFα 5000 units/ml",< 100 nM
CCC(=O)c1cnc(Nc2cccc(C#N)n2)cc1Nc1nccc(-c2ncn(C)n2)c1OC [Example 175],IC50,"[1]; human PBMC, INFα 5000 units/ml",< 100 nM
[2H]C([2H])([2H])NC(=O)c1cnc(NC(=O)N2CC(C)(C)C2)cc1Nc1cccc(-c2ncn(C)n2)c1OC [Example 148],IC50,"[1]; human PBMC, INFα 5000 units/ml",< 100 nM
[2H]C([2H])([2H])NC(=O)c1nnc(NC(=O)N2CC(OC)C2)cc1Nc1cccc(-c2ncn(C)n2)c1OC [Example 158],IC50,"[1]; human PBMC, INFα 5000 units/ml",< 100 nM
[2H]C([2H])([2H])CC(=O)c1cnc(NC(=O)C2CC2)cc1Nc1nccc(-c2ncn(C)n2)c1OC [Example 193],IC50,"[1]; human PBMC, INFα 5000 units/ml",< 100 nM
COc1c(Nc2cc(Nc3cc(C)ncn3)ncc2C(=O)C2CC2)cccc1-c1ncn(C)n1 [Example 154],IC50,"[1]; human PBMC, INFα 5000 units/ml",< 100 nM
CCC(=O)c1cnc(Nc2cccc(C#N)n2)cc1Nc1ncccc1S(C)(=O)=O [Example 176],IC50,"[1]; human PBMC, INFα 5000 units/ml",< 100 nM
COc1c(Nc2cc(Nc3ccc(N4CCOCC4=O)cn3)ncc2C(=O)C2CC2)cccc1-c1ncn(C)n1 [Example 149],IC50,"[1]; human PBMC, INFα 5000 units/ml",< 100 nM
COc1c(Nc2cc(Nc3nccc(=O)[nH]3)ncc2C(=O)C2CC2)cccc1-c1ncn(C)n1 [Example 135],IC50,"[1]; human PBMC, INFα 5000 units/ml",1000 to 10000 nM
COc1c(Nc2cc(Nc3cc(C)n(C)n3)ncc2C(=O)C2CC2)cccc1-c1ncn(C)n1 [Example 132],IC50,"[1]; human PBMC, INFα 5000 units/ml",< 100 nM
CCC(=O)c1cnc(Nc2cc(C)n(C)n2)cc1Nc1cccc(-c2ncn(C)n2)c1OC [Example 178],IC50,"[1]; human PBMC, INFα 5000 units/ml",< 100 nM
"[2H]C([2H])([2H])NC(=O)c1nnc(N2CCN(C(C)C)C2=O)cc1Nc1nccc(-c2ncn(C([2H])([2H])[2H])n2)c1OC [Example 160, 6-(3-isopropyl-2-oxo-imidazolidin-1-yl)-4-[[3-methoxy-4-[1-(trideuteriomethyl)-1,2,4-triazol-3-yl]-2-pyridyl]amino]-N-(trideuteriomethyl)pyridazine-3-carboxamide]",IC50,"[1]; human PBMC, INFα 5000 units/ml",< 100 nM
COc1c(Nc2cc(Nc3ccc(C#N)cn3)ncc2C(=O)C2CC2)cccc1-c1ncn(C)n1 [Example 139],IC50,"[1]; human PBMC, INFα 5000 units/ml",< 100 nM
CCC(=O)c1cnc(Nc2cccc(C#N)n2)cc1Nc1cccc(-c2ncn(C)n2)c1OC [Example 177],IC50,"[1]; human PBMC, INFα 5000 units/ml",< 100 nM
[2H]C([2H])([2H])NC(=O)c1nnc(NC(=O)N2CC(C)(F)C2)cc1Nc1cccc(-c2ncn(C)n2)c1OC [Example 142],IC50,"[1]; human PBMC, INFα 5000 units/ml",< 100 nM
CCC(=O)c1cnc(N2CCN(C(C)C)C2=O)cc1Nc1cccc(-c2ncn(C)n2)c1OC [Example 115],IC50,"[1]; human PBMC, INFα 5000 units/ml",< 100 nM
COc1c(Nc2cc(Nc3nc(C)c[nH]3)ncc2C(=O)C2CC2)cccc1-c1ncn(C)n1 [Example 196],IC50,"[1]; human PBMC, INFα 5000 units/ml",100 to 1000 nM
CCC(=O)c1cnc(Nc2cc(C)n(C)n2)cc1Nc1nccc(-c2ncn(C)n2)c1OC [Example 180],IC50,"[1]; human PBMC, INFα 5000 units/ml",< 100 nM
[2H]C([2H])([2H])NC(=O)c1nnc(N2CC(F)(F)C2)cc1Nc1cccc(-c2ncn(C)n2)c1OC [Example 58],Kd,[2],5 to 10 nM
Cn1cnc(-c2cccc3c2OCCOCCOc2nnccc2N3)n1 [Example 104],Kd,[2],5 to 10 nM
[2H]C([2H])([2H])NC(=O)c1nnc(NC(=O)N2CC(C)(O)C2)cc1Nc1cccc(-c2ncn(C)n2)c1OC [Example 165],IC50,"[1]; human PBMC, INFα 5000 units/ml",100 to 1000 nM
COc1c(Nc2cc(Nc3ccnc(C#N)n3)ncc2C(=O)C2CC2)cccc1-c1ncn(C)n1 [Example 143],IC50,"[1]; human PBMC, INFα 5000 units/ml",< 100 nM
CCC(=O)c1cnc(NC(=O)N2CCC2)cc1Nc1cccc(-c2ncn(C)n2)c1OC [Example 114],IC50,"[1]; human PBMC, INFα 5000 units/ml",< 100 nM
COc1c(Nc2cc(Cl)nnc2C(=O)C(F)F)cccc1-c1ncn(C)n1 [Example 46],Kd,[2],≤ 1 nM
COc1c(Nc2cc(Nc3ncc[nH]3)ncc2C(=O)C2CC2)cccc1-c1ncn(C)n1 [Example 173],IC50,"[1]; human PBMC, INFα 5000 units/ml",100 to 1000 nM
[2H]C([2H])([2H])NC(=O)c1nnc(N2CCN(C(CO)C(C)C)C2=O)cc1Nc1cccc(-c2ncn(C)n2)c1OC (stereo not shown) [Example 92],Kd,[2],≤ 1 nM
[2H]C([2H])([2H])NC(=O)c1nnc(N2CCCC2)cc1Nc1cccc(-c2ncn(C)n2)c1OC [Example 70],Kd,[2],1 to 5 nM
COc1c(Nc2cc(Nc3ccc(C(C)(C)O)c(F)n3)ncc2C(=O)C2CC2)cccc1-c1ncn(C)n1 [Example 120],IC50,"[1]; human PBMC, INFα 5000 units/ml",< 100 nM
[2H]C([2H])([2H])NC(=O)c1nnc(-n2cccn2)cc1Nc1cccc(-c2ncn(C)n2)c1OC [Example 65],Kd,[2],5 to 10 nM
[2H]C([2H])([2H])CC(=O)c1cnc(Nc2ccc(C(C)(C)O)c(F)n2)cc1Nc1ncccc1S(C)(=O)=O [Example 184],IC50,"[1]; human PBMC, INFα 5000 units/ml",< 100 nM
COc1c(Nc2cc(Nc3cccc(C#N)n3)ncc2C(=O)C2CC2)cccc1-c1ncn(C)n1 [Example 140],IC50,"[1]; human PBMC, INFα 5000 units/ml",< 100 nM
[2H]C([2H])([2H])NC(=O)c1nnc(N2CCN(C3CCC3O)C2=O)cc1Nc1cccc(-c2ncn(C)n2)c1OC (stereo not shown) [Example 81],Kd,[2],≤ 1 nM
COc1c(Nc2cc(Nc3ccc(C)nn3)ncc2C(=O)C2CC2)cccc1-c1ncn(C)n1 [Example 113],IC50,"[1]; human PBMC, INFα 5000 units/ml",< 100 nM
[2H]C([2H])([2H])NC(=O)c1nnc(NC(=O)N2CC3(CC3)C2)cc1Nc1cccc(-c2ncn(C)n2)c1OC [Example 150],IC50,"[1]; human PBMC, INFα 5000 units/ml",< 100 nM
[2H]C([2H])([2H])NC(=O)c1nnc(N2CCC3(CCNCC3)C2=O)cc1Nc1cccc(-c2ncn(C)n2)c1OC [Example 75],Kd,[2],≤ 1 nM
COc1c(Nc2cc(NC(=O)C3CC3F)ncc2C(=O)C2CC2)cccc1-c1ncn(C)n1 (stereo not shown) [Example 130],IC50,"[1]; human PBMC, INFα 5000 units/ml",< 100 nM
[2H]C([2H])([2H])NC(=O)c1nnc(N2CCN(CC(C)(C)O)C2=O)cc1Nc1cccc(-c2ncn(C)n2)c1OC [Example 90],Kd,[2],≤ 1 nM
[2H]C([2H])([2H])CC(=O)c1cnc(Nc2cc(C)nc(C)n2)cc1Nc1ncccc1S(C)(=O)=O [Example 191],IC50,"[1]; human PBMC, INFα 5000 units/ml",< 100 nM
[2H]C([2H])([2H])NC(=O)c1nnc(NC(=O)N2CC(C(F)F)C2)cc1Nc1cccc(-c2ncn(C)n2)c1OC [Example 157],IC50,"[1]; human PBMC, INFα 5000 units/ml",< 100 nM
[2H]C([2H])([2H])NC(=O)c1nnc(N2CCN(CCN(CC)CC)C2=O)cc1Nc1cccc(-c2ncn(C)n2)c1OC [Example 93],Kd,[2],≤ 1 nM
COc1c(Nc2cc(N3CCN(C(C)C)C3=O)ncc2C(=O)C2CC2)cccc1-c1ncn(C)n1 [Example 35],Kd,[2],≤ 1 nM
[2H]C([2H])([2H])NC(=O)c1nnc(-n2ccc(C)n2)cc1Nc1cccc(-c2ncn(C)n2)c1OC [Example 66],Kd,[2],1 to 5 nM
[2H]C([2H])([2H])NC(=O)c1nnc(C=C(C)C)cc1Nc1cccc(-c2ncn(C)n2)c1OC [Example 73],Kd,[2],5 to 10 nM
[2H]C([2H])([2H])NC(=O)c1nnc(/C=C/C2CC2)cc1Nc1cccc(-c2ncn(C)n2)c1OC [Example 45],Kd,[2],≤ 1 nM
[2H]C([2H])([2H])NC(=O)c1nnc(N2CCN(C3CC(C)(C)C3)C2=O)cc1Nc1cccc(-c2ncn(C)n2)c1OC [Example 101],Kd,[2],≤ 1 nM
COc1c(Nc2cc(N[S@@+]([O-])C(C)(C)C)ncc2C(=O)C2CC2)cccc1-c1ncn(C)n1 [Example 123],Kd,[2],> 10 nM
[2H]C([2H])([2H])NC(=O)c1nnc(N2CCN(C(CC)CC)C2=O)cc1Nc1cccc(-c2ncn(C)n2)c1OC [Example 102],Kd,[2],≤ 1 nM
[2H]C([2H])([2H])NC(=O)c1nnc(N2CCN(C(C)COC)C2=O)cc1Nc1cccc(-c2ncn(C)n2)c1OC (stereo not shown) [Example 97],Kd,[2],≤ 1 nM
[2H]C([2H])([2H])NC(=O)c1nnc(N2CC3(COC3)C2)cc1Nc1cccc(-c2ncn(C)n2)c1OC [Example 53],Kd,[2],≤ 1 nM
